Measured values: ChEMBL document CHEMBL1201862, “PubChem BioAssay data set” (2004)
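Growth conditions: 96-well plates. Treatment: test compound, 48 hours, 5 concentrations. Analysis: linear interpolation between bracketing concentrations; unreached endpoints set to highest concentration. GI50 marks 50% less growth.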 Active and inactive are the calls of the source. No stated cut-off is given here; in the data, active = GI50 up to about 1.1 µM and inactive = higher.

Legend:
Experiment in all cases: NCI tumour cell line growth inhibition, 48 h
XF498 = system: XF498
SNB-78 = system: SNB-78
LXFL 529 = system: LXFL 529
DMS-273 = system: DMS-273
KM-20L2 = system: KM-20L2
DMS-114 = system: DMS-114
HOP-18 = system: HOP-18
M19-MEL = system: M19-MEL
RXF 631 = system: RXF 631

SMILES | GI50 (XF498) | GI50 (SNB-78) | GI50 (LXFL 529) | GI50 (DMS-273) | GI50 (KM-20L2) | GI50 (DMS-114) | GI50 (HOP-18) | GI50 (M19-MEL) | GI50 (RXF 631)
C=CCC1C(=O)CC2(C)CC(=O)C(CC=C)C12C (stereo not drawn) | > 100 µM (inactive) | > 100 µM (inactive) | > 100 µM (inactive) | > 100 µM (inactive) | > 100 µM (inactive) | > 100 µM (inactive) | > 100 µM (inactive) | > 100 µM (inactive) | 
COc1ccc(C(=O)C(CC2C(=O)NC(=O)NC2=O)c2ccc(OC)cc2)cc1 (stereo not drawn) | > 100 µM (inactive) | > 100 µM (inactive) | > 100 µM (inactive) | > 100 µM (inactive) | > 100 µM (inactive) | > 100 µM (inactive) | > 100 µM (inactive) | > 100 µM (inactive) | 
CN(/N=C\c1ccnc2ccccc12)c1ccccc1 | 29.7 µM (inactive) | 34.4 µM (inactive) | 26.1 µM (inactive) | 20 µM (inactive) |  | 22.7 µM (inactive) | 79.1 µM (inactive) | 26.1 µM (inactive) | 
CCC12C=CCN(CCc3c([nH]c4ccccc34)/C=C\1)C2 (stereo not drawn) | > 100 µM (inactive) |  | > 100 µM (inactive) | > 100 µM (inactive) | > 100 µM (inactive) | > 100 µM (inactive) | > 100 µM (inactive) | > 100 µM (inactive) | > 100 µM (inactive)
CSc1nnc(COc2ccc(Cl)cc2)o1 | > 100 µM (inactive) | > 100 µM (inactive) | > 100 µM (inactive) | > 100 µM (inactive) | > 100 µM (inactive) | > 100 µM (inactive) |  | > 100 µM (inactive) | 
O=[N+]([O-])c1cc(/C=N/NS(=O)(=O)c2ccc(F)cc2)c(O)c([N+](=O)[O-])c1 |  | 52.6 µM (inactive) |  | 30.8 µM (inactive) | 25.9 µM (inactive) | 32.2 µM (inactive) | 85.3 µM (inactive) | 49.8 µM (inactive) | 
O=C(O)CSc1nnc(-c2ccccc2O)[nH]1 | > 100 µM (inactive) | > 100 µM (inactive) | > 100 µM (inactive) | > 100 µM (inactive) | > 100 µM (inactive) | > 100 µM (inactive) |  | > 100 µM (inactive) | > 100 µM (inactive)
NC(=O)c1nc(-c2ccc(Cl)c(Cl)c2)nc2ccccc12 | 57.8 µM (inactive) | > 23.7 µM (inactive) | > 26.4 µM (inactive) |  | > 100 µM (inactive) | > 20.4 µM (inactive) | 34.8 µM (inactive) | > 38.1 µM (inactive) | 
O=C(CN1C(=O)c2ccccc2C1=O)OC1C=CCCC1 (stereo not drawn) |  | > 100 µM (inactive) | > 100 µM (inactive) | > 100 µM (inactive) | > 100 µM (inactive) |  | > 100 µM (inactive) | > 100 µM (inactive) | 
C=CCc1ccc(O)c(-c2cc(C3Oc4c(-c5cc(CC=C)ccc5O)cc(O)cc4[C@@H]3CO)ccc2O)c1 (stereo partly drawn) |  | 39.9 µM (inactive) | 19.8 µM (inactive) | 20.4 µM (inactive) | 26.7 µM (inactive) | 14.9 µM (inactive) | 32.4 µM (inactive) | 33.4 µM (inactive) | 
CCCCCCCCCCCCCCCC(=O)NCC(COP(=O)([O-])OCC[N+](C)(C)C)OCC (stereo not drawn) | 12.1 µM (inactive) | 14.1 µM (inactive) | 13.1 µM (inactive) | 2.36 µM (inactive) | 4.01 µM (inactive) | 16 µM (inactive) | 0.92 µM (active) | 4.5 µM (inactive) | 
C[N+](C)(C)C1CC([N+](C)(C)C)C2c3ccccc3C21 (stereo not drawn) | > 100 µM (inactive) | > 100 µM (inactive) | > 100 µM (inactive) | > 100 µM (inactive) | > 100 µM (inactive) | > 100 µM (inactive) |  | > 100 µM (inactive) | > 100 µM (inactive)
